Assay results taken from PubChem BioAssay (NCI).
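Five concentrations, 48 hours, 96-well plates. TGI: total growth inhibition.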

Tests used:
Test in all cases: NCI-60 cell line screen, 48 h
SN12C renal = tested on: SN12C renal
HCT-15 colon = tested on: HCT-15 colon
OVCAR-3 ovarian = tested on: OVCAR-3 ovarian
DU-145 prostate = tested on: DU-145 prostate
RXF 393 renal = tested on: RXF 393 renal
NCI/ADR-RES ovarian = tested on: NCI/ADR-RES ovarian
COLO 205 colon = tested on: COLO 205 colon
A549 NSCLC = tested on: A549 NSCLC
UACC-257 melanoma = tested on: UACC-257 melanoma
U251 CNS = tested on: U251 CNS
SK-MEL-2 melanoma = tested on: SK-MEL-2 melanoma
SR leukemia = tested on: SR leukemia
MDA-MB-435 = tested on: MDA-MB-435
NCI-H460 lung = tested on: NCI-H460 lung
MDA-MB-231 breast = tested on: MDA-MB-231 breast
SF-268 CNS = tested on: SF-268 CNS
SF-295 CNS = tested on: SF-295 CNS
UO-31 renal = tested on: UO-31 renal
EKVX NSCLC = tested on: EKVX NSCLC
HOP-92 NSCLC = tested on: HOP-92 NSCLC
MOLT-4 leukemia = tested on: MOLT-4 leukemia
IGROV1 ovarian = tested on: IGROV1 ovarian
HCT-116 colon = tested on: HCT-116 colon
SK-OV-3 ovarian = tested on: SK-OV-3 ovarian
MALME-3M melanoma = tested on: MALME-3M melanoma
HOP-62 NSCLC = tested on: HOP-62 NSCLC
OVCAR-5 ovarian = tested on: OVCAR-5 ovarian
M14 melanoma = tested on: M14 melanoma
HCC-2998 colon = tested on: HCC-2998 colon
LOX IMVI melanoma = tested on: LOX IMVI melanoma
SNB-75 CNS = tested on: SNB-75 CNS
OVCAR-8 ovarian = tested on: OVCAR-8 ovarian
HL-60(TB) leukemia = tested on: HL-60(TB) leukemia
MCF7 breast = tested on: MCF7 breast
786-0 renal = tested on: 786-0 renal
NCI-H23 lung = tested on: NCI-H23 lung
SNB-19 CNS = tested on: SNB-19 CNS
SW-620 colon = tested on: SW-620 colon
HS 578T breast = tested on: HS 578T breast
TK-10 renal = tested on: TK-10 renal
T-47D breast = tested on: T-47D breast
SK-MEL-5 melanoma = tested on: SK-MEL-5 melanoma
OVCAR-4 ovarian = tested on: OVCAR-4 ovarian
PC-3 prostate = tested on: PC-3 prostate
ACHN renal = tested on: ACHN renal
K-562 leukemia = tested on: K-562 leukemia
SF-539 CNS = tested on: SF-539 CNS
KM12 colon = tested on: KM12 colon
NCI-H226 lung = tested on: NCI-H226 lung
CAKI-1 renal = tested on: CAKI-1 renal
CCRF-CEM leukemia = tested on: CCRF-CEM leukemia
HT29 colon = tested on: HT29 colon
NCI-H522 lung = tested on: NCI-H522 lung
SK-MEL-28 melanoma = tested on: SK-MEL-28 melanoma
UACC-62 melanoma = tested on: UACC-62 melanoma
BT-549 breast = tested on: BT-549 breast
A498 renal = tested on: A498 renal
RPMI-8226 leukemia = tested on: RPMI-8226 leukemia

SMILES: CC(C)(C)OC(=O)N1CCC23CCCC2C(=O)CC=C13 (stereo not given)
- TGI (SN12C renal): > 100 µM
- TGI (HCT-15 colon): > 100 µM
- TGI (OVCAR-3 ovarian): > 100 µM
- TGI (DU-145 prostate): > 100 µM
- TGI (RXF 393 renal): > 100 µM
- TGI (NCI/ADR-RES ovarian): > 100 µM
- TGI (COLO 205 colon): > 100 µM
- TGI (A549 NSCLC): > 100 µM
- TGI (UACC-257 melanoma): 71.9 µM
- TGI (U251 CNS): > 100 µM
- TGI (SK-MEL-2 melanoma): > 100 µM
- TGI (SR leukemia): > 100 µM
- TGI (MDA-MB-435): > 100 µM
- TGI (NCI-H460 lung): > 100 µM
- TGI (MDA-MB-231 breast): > 100 µM
- TGI (SF-268 CNS): > 100 µM
- TGI (SF-295 CNS): > 100 µM
- TGI (UO-31 renal): > 100 µM
- TGI (EKVX NSCLC): > 100 µM
- TGI (HOP-92 NSCLC): > 100 µM
- TGI (MOLT-4 leukemia): > 100 µM
- TGI (IGROV1 ovarian): > 100 µM
- TGI (HCT-116 colon): > 100 µM
- TGI (SK-OV-3 ovarian): > 100 µM
- TGI (MALME-3M melanoma): > 100 µM
- TGI (HOP-62 NSCLC): > 100 µM
- TGI (OVCAR-5 ovarian): > 100 µM
- TGI (M14 melanoma): > 100 µM
- TGI (HCC-2998 colon): > 100 µM
- TGI (LOX IMVI melanoma): > 100 µM
- TGI (SNB-75 CNS): > 100 µM
- TGI (OVCAR-8 ovarian): > 100 µM
- TGI (HL-60(TB) leukemia): > 100 µM
- TGI (MCF7 breast): > 100 µM
- TGI (786-0 renal): > 100 µM
- TGI (NCI-H23 lung): > 100 µM
- TGI (SNB-19 CNS): > 100 µM
- TGI (SW-620 colon): > 100 µM
- TGI (HS 578T breast): > 100 µM
- TGI (TK-10 renal): > 100 µM
- TGI (T-47D breast): > 100 µM
- TGI (SK-MEL-5 melanoma): > 100 µM
- TGI (OVCAR-4 ovarian): > 100 µM
- TGI (PC-3 prostate): > 100 µM
- TGI (ACHN renal): > 100 µM
- TGI (K-562 leukemia): > 100 µM
- TGI (SF-539 CNS): > 100 µM
- TGI (KM12 colon): > 100 µM
- TGI (NCI-H226 lung): > 100 µM
- TGI (CAKI-1 renal): > 100 µM
- TGI (CCRF-CEM leukemia): > 100 µM
- TGI (HT29 colon): > 100 µM
- TGI (NCI-H522 lung): > 100 µM
- TGI (SK-MEL-28 melanoma): > 100 µM
- TGI (UACC-62 melanoma): > 100 µM
- TGI (BT-549 breast): > 100 µM

SMILES: CC(C)[Si]1(C(C)C)OCC2OC(n3ccc(=O)[nH]c3=O)C(O)(CO)C2O[Si](C(C)C)(C(C)C)O1 (stereo not given)
- TGI (SN12C renal): 29.8 µM
- TGI (HCT-15 colon): 36.2 µM
- TGI (OVCAR-3 ovarian): 29.4 µM
- TGI (DU-145 prostate): 32.4 µM
- TGI (RXF 393 renal): 30.4 µM
- TGI (NCI/ADR-RES ovarian): 30.1 µM
- TGI (COLO 205 colon): 31.7 µM
- TGI (A549 NSCLC): 27.9 µM
- TGI (UACC-257 melanoma): 28.7 µM
- TGI (U251 CNS): 30.1 µM
- TGI (SK-MEL-2 melanoma): 31 µM
- TGI (SR leukemia): 30 µM
- TGI (MDA-MB-435): 31.6 µM
- TGI (MDA-MB-231 breast): 26.7 µM
- TGI (SF-268 CNS): 27.8 µM
- TGI (SF-295 CNS): 28.5 µM
- TGI (UO-31 renal): 22.2 µM
- TGI (EKVX NSCLC): 27.4 µM
- TGI (HOP-92 NSCLC): 22.6 µM
- TGI (MOLT-4 leukemia): 69.1 µM
- TGI (IGROV1 ovarian): 23.9 µM
- TGI (HCT-116 colon): 27.7 µM
- TGI (SK-OV-3 ovarian): 30.2 µM
- TGI (MALME-3M melanoma): 28.4 µM
- TGI (HOP-62 NSCLC): 33.8 µM
- TGI (OVCAR-5 ovarian): 29.5 µM
- TGI (M14 melanoma): 34.8 µM
- TGI (LOX IMVI melanoma): 30.7 µM
- TGI (OVCAR-8 ovarian): 29.5 µM
- TGI (HL-60(TB) leukemia): > 100 µM
- TGI (MCF7 breast): 29.2 µM
- TGI (786-0 renal): 29.3 µM
- TGI (NCI-H23 lung): 12.5 µM
- TGI (SNB-19 CNS): 28.9 µM
- TGI (SW-620 colon): 33.8 µM
- TGI (HS 578T breast): 11.4 µM
- TGI (TK-10 renal): 31.3 µM
- TGI (T-47D breast): 30.2 µM
- TGI (SK-MEL-5 melanoma): 28.4 µM
- TGI (OVCAR-4 ovarian): 26.9 µM
- TGI (A498 renal): 36.1 µM
- TGI (PC-3 prostate): 25.9 µM
- TGI (ACHN renal): 30.8 µM
- TGI (K-562 leukemia): 81.6 µM
- TGI (SF-539 CNS): 32.2 µM
- TGI (KM12 colon): 31 µM
- TGI (NCI-H226 lung): 36.8 µM
- TGI (CAKI-1 renal): 29.6 µM
- TGI (CCRF-CEM leukemia): 30.7 µM
- TGI (HT29 colon): 28.7 µM
- TGI (SK-MEL-28 melanoma): 36.7 µM
- TGI (UACC-62 melanoma): 29.2 µM
- TGI (RPMI-8226 leukemia): 26.2 µM
- TGI (BT-549 breast): 30.7 µM
